What was measured:
[1] = tested on: C57BL6 murine ID8 ovarian carcinoma cell line; experiment: Mouse syngeneic model of ovarian carcinoma (ID8 VEGF164/GFP); type: in vivo, C57BL6 mice; details: expected; for tumor growth delay compared with vehicle control: single agent (inhibitor 2 mg/kg; cisplatin 2 or 6 mg/kg)
Protocol: The efficacy of a 24-hydroxylase inhibitor, alone or in combination with a chemotherapeutic agent is tested in a mouse syngeneic model of ovarian carcinoma using methods as described in Zhang et al., (Am. J. of Pathol. (2002) 161:2295-2309). Briefly, using retroviral transfection and fluorescence-activated cell sorting, a C57BL6 murine ID8 ovarian carcinoma cell line is generated that stably overexpresses the murine VEGF164 isoform and the enhanced green fluorescence protein (GFP). The retroviral construct containing VEGF164 and GFP cDNAs is then transfected into BOSC23 cells. The cells are analyzed by FACS cell sorting, and cells showing high GFP fluorescence are identified and isolated. The ID8 VEGF164/GFP transfected cells are cultured to subconfluence and prepared in a single-cell suspension in phosphate buffer saline (PBS) and cold […] (BD Biosciences, Bedford, Mass.). Six to eight week old female C57BL6 mice are injected subcutaneously in the flank with 5×10^6 transfected or untransfected (control) cells. Animals are sacrificed eight weeks after inoculation and evaluated for tumor growth. Mice are treated with a 24-hydroxylase inhibitor (VID 400/RC-8800) beginning 3-14 days following tumor implantation. Mice are treated in the following groups, with 5 mice for each group:
The agents are administered on a daily basis for 14 days. Animals are monitored daily for body weight, and significant morbidity.

24-hydroxylase (CYP24) = target: T1, 24-hydroxylase (CYP24) (Homo sapiens, UniProt Q07973); details: identified by Schuster et al., J. Cell. Biochem. 88:372-380 (2003); cited from earlier work
T1 construct: confluent cultures of human keratinocytes are isolated from adult skin in serum-free keratinocyte growth medium; endogenous in cells; host or cells: primary human keratinocytes from adult skin
T1 sequence (Q07973 36-514): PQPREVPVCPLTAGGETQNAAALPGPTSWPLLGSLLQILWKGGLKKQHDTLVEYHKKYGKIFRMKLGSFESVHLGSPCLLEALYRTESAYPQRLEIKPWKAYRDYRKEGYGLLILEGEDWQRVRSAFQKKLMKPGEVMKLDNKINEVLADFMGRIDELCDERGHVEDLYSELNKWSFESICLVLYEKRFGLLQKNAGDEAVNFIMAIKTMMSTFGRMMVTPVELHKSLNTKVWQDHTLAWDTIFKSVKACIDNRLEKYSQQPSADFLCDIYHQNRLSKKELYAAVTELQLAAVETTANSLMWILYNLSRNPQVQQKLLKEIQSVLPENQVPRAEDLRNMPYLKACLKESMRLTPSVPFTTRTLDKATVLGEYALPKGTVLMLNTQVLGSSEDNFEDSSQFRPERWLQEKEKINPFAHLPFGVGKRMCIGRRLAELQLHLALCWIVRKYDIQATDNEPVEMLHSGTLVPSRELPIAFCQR

[2] = tested on: Human RL B-lymphoma cells; experiment: Human RL B-lymphoma cells in SCID mice; type: in vivo; details: expected
Protocol: Human RL B-lymphoma cells (Beckwith et al. (1990) J. Nat. Cancer Inst. 82, 501) are maintained in vitro by passage in growth medium. The cells are washed thoroughly in PBS to remove culture components. SCID mice are injected with one million human lymphoma cells via the tail vein in 100 microliters (μl). 24-hydroxylase inhibitor treatment is initiated the following day by daily intraperitoneal (i.p.) injection of 3 mg/kg 24-hydroxylase inhibitor (VID400), alone or in combination with doxorubicin at 5 mg/kg, or vehicle. Mice are monitored for survival and significant morbidity. […] Depending on the lymphoma cell line employed, the untreated mice typically die within 3 to 6 weeks.

24-hydroxylase = target: T2, 24-hydroxylase (Homo sapiens, UniProt Q07973); details: described by Kahraman et al., J. Med. Chem. 47:6854-6863 (2004); cited from earlier work
T2 sequence (Q07973 36-514): T1 sequence (Q07973 36-514)

O=C(NC[C@@H](c1ccccc1)n1ccnc1)c1ccc(-c2ccc(Cl)cc2)cc1 [(R)-VID400, 2-(R)-4′-Chlorobiphenyl-4-carboxylic acid (2-imidazol-1-yl-2-phenyl-ethyl)-amide]
tumor growth delay ([1]; 24-hydroxylase inhibitor 2 mg/kg + cisplatin 2 or 6 mg/kg, daily for 14 days, vs cisplatin alone at same dosage or inhibitor alone): delay longer than cisplatin alone | body weight ([1]; 24-hydroxylase inhibitor 2 mg/kg + cisplatin, vs vehicle or single therapy controls of same dosage): maintain body weight significantly more | tumor growth delay compared with vehicle control ([1]; daily for 14 days): significant delay | inhibition of 24-hydroxylase (24-hydroxylase (CYP24)): potent inhibitors | inhibition in tumor growth ([2]; VID400 3 mg/kg i.p. daily in combination with doxorubicin 5 mg/kg): highest growth inhibition

N.N.[Cl][Pt][Cl] [Cisplatin, reference compound]
tumor growth delay compared with vehicle control ([1]; daily for 14 days): significant delay

C=C1/C(=C\C=C2/CCCC3(C)C2CC[C@@H]3[C@H](C)CCS(=N)(=O)c2ccc(F)cc2)C[C@@H](O)C[C@@H]1O (stereo partly drawn) [Formula VI]
potency as 24-hydroxylase inhibitor (structure activity relationships) (24-hydroxylase): slightly less potent

C=C1/C(=C\C=C2/CCCC3(C)C2CC[C@@H]3[C@H](C)CCS(=N)(=O)c2ccccc2)C[C@@H](O)C[C@@H]1O (stereo partly drawn) [Formula V]
potency as 24-hydroxylase inhibitor (structure activity relationships) (24-hydroxylase): most potent

COc1cccc2c1C(=O)c1c(O)c3c(c(O)c1C2=O)C[C@@](O)(C(=O)CO)C[C@@H]3O[C@H]1C[C@H](N)[C@H](O)[C@H](C)O1 [doxorubicin, reference compound]
inhibition in tumor growth ([2]; doxorubicin 5 mg/kg alone, SCID mice, RL B-lymphoma): significant inhibition

From patent publication US20060078494A1, “Use of inhibitors of 24-hydroxylase in the treatment of cancer” (Sapphire Therapeutics, Inc., priority 2004, published 2006)
